According to patent US20020052370A1, “Cyclopentyl-substituted glutaramide derivatives as inhibitors of neutral endopeptidase” (priority 2000, published 2002):

Key:
[1] = tested on: vaginal and clitoral blood flow; assay: Anaesthetised rabbit model of sexual arousal: pelvic nerve stimulated genital blood flow by laser Doppler; assay type: in vivo, Female New Zealand rabbits
Source text: Animal Model of arousal response
We have developed an animal model that mimics the physiological arousal response observed during female sexual arousal and directly reflects the clinical data obtained in human volunteers. The model uses Laser Doppler technologies to record small changes in vaginal and clitoral blood flow induced by pelvic nerve stimulation or vasoactive neurotransmitters. During sexual arousal there is an increase in genital blood flow resulting from increased innervation from the pelvic nerve. This increase in genital blood flow leads to increased genital lubribriation and genital sensitivity which are associated with sexual arousal. The major cause of FSAD is decreased genital blood flow and this manifests itself as reduced vaginal, labial and clitoral engorgement. Treatment of women with FSAD is achievable by restoration of the normal sexual arousal response. This can be achieved by enhancing genital blood flow.
The title product from Example 29 was administered using this animal model according to the following protocol to show an enhancement in pelvic nerve stimulated increases in genital blood flow in the rabbit.
Two routes of administration were studied: a) intravenous administration and b) topical administration. Both studies used the anesthatised rabbit model according to the following protocol.
Female New Zealand rabbits (˜2.5 kg) were pre-medicated with a combination of Medetomidine (Domitor®) 0.5 ml/kg i.m., and Ketamine (Vetalar®) 0.25 ml/kg i.m. whilst maintaining oxygen intake via a face mask. The rabbits were tracheotomised using a Portex™ uncuffed endotracheal tube 3 ID, connected to ventilator and maintained a ventilation rate of 30-40 breaths per minute, with an approximate tidal volume of 18-20 ml, and a maximum airway pressure of 10 cm H2O. Anaesthesia was then switched to Isoflurane and ventilation continued with O2 at 2 l/min. The right marginal ear vein was cannulated using a 23 G or 24 G catheter, and Lactated Ringer solution perfused at 0.5 ml/min. The rabbit was maintained at 3% Isoflurane during invasive surgery, dropping to 2% for maintenance anaesthesia.
A ventral midline incision was made into the abdominal cavity. The incision was about 5 cm in length just above the pubis. The fat and muscle was bluntly dissected away to reveal the hypogastric nerve which runs down the body cavity. It was essential to keep close to the side curve of the pubis wall in order to avoid damaging the femoral vein and artery which lie above the pubis. The sciatic and pelvic nerves lie deeper and were located after further dissection on the dorsal side of the rabbit. Once the sciatic nerve is identified, the pelvic nerve was easily located. The term pelvic nerve is loosely applied; anatomy books on the subject fail to identify the nerves in sufficient detail. However, stimulation of the nerve causes an increase in vaginal and clitoral blood flow, and innervation of the pelvic region. The pelvic nerve was freed away from surrounding tissue and a Harvard bipolar stimulating electrode was placed around the nerve. The nerve was slightly lifted to give some tension, then the electrode was secured in position. Approximately 1 ml of light paraffin oil was placed around the nerve and electrode. […]
A frequency response curve was determined at the start of each experiment in order to determine the optimum frequency to use as a sub-maximal response, normally 4 Hz. […]

[2] = 1.0 mg/kg iv bolus infusion, submaximal stimulation (eg 4 Hz), anaesthetised rabbit, n=3

Row | SMILES | increase in clitoral blood flow (peak, pelvic nerve stimulated) [1, 2] | increase in vaginal blood flow (peak, pelvic nerve stimulated) [1, 2] | pelvic nerve stimulated increases in genital blood flow ([1]; both intravenous and topical administration, clinically relevant doses, rabbit) | peak pelvic nerve stimulated increase in vaginal blood flow ([1]; intravaginal topical application (0.2 mg/ml printed), vs mean control flow increases, n=4, P<0.001) | basal (non-stimulated) vaginal blood flow ([1]; intravaginal topical application, compared to control flow, n=4) | melting point
1 | CCC[C@H](CC1(C(=O)Nc2nnc(CC)s2)CCCC1)C(=O)O [Example 29, (2R)-2-[(1-{[(5-Ethyl-1,3,4-thiadiazol-2-yl)amino]carbonyl}cyclopentyl)methyl]pentanoic acid] | 131% | 92% | significantly enhanced | significantly enhanced | no effect | 
2 | O=C(O)C(CCc1ccccc1)CC1(C(=O)Nc2cccnc2)CCCC1 (stereo not drawn) [Example 41, 4-Phenyl-2-({1-[(3-pyridinylamino)carbonyl]cyclopentyl}methyl)butanoic acid] |  |  |  |  |  | 80 to 85 °C
